Test system: KRAS-mutant PDC complex spheroid viability
Test: Anticancer human tumor 186277-243-T-J2-PDC patient-derived colon adenocarcinoma cell line growth inhibition [KRAS2]
Settings: for IC50: curve of first compound; for viability, T/C: stronger effect = lower value
Source text: Multicellular complex tumor spheroid response to RAS pathway inhibitors in combination with a targeted agents in patient-derived cell lines with oncogenic KRAS variants from multiple cancer types
A high-throughput screen of multi-cell type tumor spheroids was designed to identify active combinations of targeted small molecules and KRAS pathway inhibitors. Complex spheroids include a stromal component modeled by human endothelial cells (HUVEC) and fibroblasts modeled by human mesenchymal stem cells (MSCs). The concentration ranges selected for each drug and investigational agent were based upon clinically achievable concentrations if the clinical Cmax of the agent was known.
Compounds. The drugs and investigational agents: BI-3406 (NSC825286), BAY-293 (NSC824723), batoprotafib (TNO155; NSC825523), sotorasib (AMG 510; NSC818433), MRTX1257 (NSC819558), elimusertib (BAY 1895344; NSC800525), molibresib (GSK525762; NSC774829), temuterkib (LY3214996; NSC803410), venetoclax (NSC766270), alisertib (NSC759677), olaparib (NSC753686), talazoparib (NSC767125), erdafitinib (NSC781556), ipatasertib (NSC767898), cabozantinib (NSC761068), nintedanib (NSC756659), abemaciclib (NSC768073), docetaxel (NSC628503), trametinib (NSC758246), and sapanisertib (NSC764658) were obtained from the National Cancer Institute (NCI) Developmental Therapeutics Program Chemical Repository. The FDA-approved anticancer drug set is available from the Developmental Therapeutics Program. […] The stock solutions were prepared in dimethyl sulfoxide (DMSO, Sigma-Aldrich, St. Louis, MO, cat. D2650) at 800-fold the tested concentration and stored at -70 degrees C prior to their use. All drugs and investigational agents were tested over a range starting from a high concentration at or near the clinical Cmax and decreasing in half-log increments. If the clinical Cmax for an agent had not been determined, the highest concentration tested was 10 microM.
Cell Culture. All cells were maintained in an incubator at 37 degrees C and 5% CO2 with 95% humidity. The PDC lines were cultured according to standard operating procedures established by the NCI PDMR (https://pdmr.cancer.gov/sops/default.htm). Briefly, all PDCs were thawed and cultured in Matrigel-coated flasks prepared with a working solution of 1X Ham's F-12 nutrient mix, without supplementation (Invitrogen, Waltham, MA, cat. 11765054), 100 U/mL penicillin-streptomycin (Invitrogen, cat. 15140122), and 2.5% Matrigel (Corning Inc., Corning, NY, cat. 354248) for the first three passages. All PDCs were cultured in complete DMEM/F-12 media containing advanced DMEM/F-12 (Invitrogen, cat. 12634028), 4.9% defined fetal bovine serum, heat inactivated (HyClone Laboratories Inc., Logan, UT, cat. SH30070.03HI), 389 ng/mL hydrocortisone (Sigma-Aldrich, cat. H4001), 9.7 ng/mL human EGF recombinant protein (Invitrogen, cat. PHG0313), 23.4 microg/mL adenine (Sigma-Aldrich, cat. A2786), 97.3 U/mL penicillin-streptomycin (Invitrogen, cat. 15140122), 1.9 mM L-glutamine (Invitrogen, cat. 25030081), and 9.7 microM Y-27632 dihydrochloride (Tocris Bioscience, Bristol, United Kingdom, cat. 1254). The PDCs were cultured in complete DMEM/F12 media without 9.7 microM Y-27632 dihydrochloride for at least two passages prior to the screen. The established cell line HOP-62 was cultured in RPMI 1640 medium, HEPES (Invitrogen, cat. 22400105) with 10% defined fetal bovine serum (HyClone Laboratories Inc., cat. SH30070.03) and 2 mM L-glutamine (Invitrogen, cat. 25030081). The pooled donor HUVEC were cultured in endothelial cell growth medium 2 (PromoCell, Heidelberg, Germany, cat. C-22011) and the hMSC were cultured in mesenchymal stem cell growth medium 2 (PromoCell, cat. C-28009). For all experiments, HUVEC and hMSC were used at passages </=5, while the malignant cell lines were used at passages </=15. […]

[1] = second compound 0.1 µM, first compound 0.0316 µM
[2] = second compound 0.316 µM, first compound 0.0316 µM
[3] = second compound 1 µM, first compound 0.0316 µM
[4] = second compound 3.16 µM, first compound 0.0316 µM
[5] = second compound 10 µM, first compound 0.0316 µM
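Wherever viability, T/C is given: viability read after seven days of compound exposure; 100% = DMSO vehicle-treated spheroids so lower means less viable.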

In the case of CC(=O)Nc1cccc(-n2c(=O)n(C3CC3)c(=O)c3c(Nc4ccc(I)cc4F)n(C)c(=O)c(C)c32)c1 + C=CC(=O)N1CCN(c2nc(=O)n(-c3c(C)ccnc3C(C)C)c3nc(-c4c(O)cccc4F)c(F)cc23)C(C)C1, the IC50 (second compound 0.1 µM) is reported as 0.625 nM, the IC50 (second compound 0.316 µM) is reported as 0.659 nM and the IC50 (second compound 1 µM) is reported as 0.583 nM. For the same compound, the IC50 (second compound 3.16 µM) was 0.444 nM, the IC50 (second compound 10 µM) was 0.11 nM and the viability, T/C (second compound 0.1 µM, first compound 0.0001 µM) was 99.2%. For the same compound, the viability, T/C (second compound 0.1 µM, first compound 0.000316 µM) was 96.3%, the viability, T/C (second compound 0.1 µM, first compound 0.001 µM) was 18% and the viability, T/C (second compound 0.1 µM, first compound 0.00316 µM) was 8.67%. It also gave a viability, T/C (second compound 0.1 µM, first compound 0.01 µM) of 2.97%, a viability, T/C [1] of 1.31% and a viability, T/C (second compound 0.316 µM, first compound 0.0001 µM) of 100%. It also gave a viability, T/C (second compound 0.316 µM, first compound 0.000316 µM) of 99.7%, a viability, T/C (second compound 0.316 µM, first compound 0.001 µM) of 21.9% and a viability, T/C (second compound 0.316 µM, first compound 0.00316 µM) of 9%. It also gave a viability, T/C (second compound 0.316 µM, first compound 0.01 µM) of 3.1%, a viability, T/C [2] of 1.46% and a viability, T/C (second compound 1 µM, first compound 0.0001 µM) of 111%. The viability, T/C (second compound 1 µM, first compound 0.000316 µM) was 86.7%, the viability, T/C (second compound 1 µM, first compound 0.001 µM) was 17.4% and the viability, T/C (second compound 1 µM, first compound 0.00316 µM) was 7.6%. The viability, T/C (second compound 1 µM, first compound 0.01 µM) was 4.82%, the viability, T/C [3] was 1.76% and the viability, T/C (second compound 3.16 µM, first compound 0.0001 µM) was 90.9%. It also gave a viability, T/C (second compound 3.16 µM, first compound 0.000316 µM) of 65.8%, a viability, T/C (second compound 3.16 µM, first compound 0.001 µM) of 11.9% and a viability, T/C (second compound 3.16 µM, first compound 0.00316 µM) of 9.32%. For the same compound, the viability, T/C (second compound 3.16 µM, first compound 0.01 µM) was 2.47%, the viability, T/C [4] was 1.47% and the viability, T/C (second compound 10 µM, first compound 0.0001 µM) was 53.6%. For the same compound, the viability, T/C (second compound 10 µM, first compound 0.000316 µM) was 9.73%, the viability, T/C (second compound 10 µM, first compound 0.001 µM) was 3.83% and the viability, T/C (second compound 10 µM, first compound 0.00316 µM) was 4.23%. It also gave a viability, T/C (second compound 10 µM, first compound 0.01 µM) of 0.78% and a viability, T/C [5] of 0.43%.
Compound COc1cc(Nc2ncc3c(n2)-c2ccc(Cl)cc2C(c2c(F)cccc2OC)=NC3)ccc1C(=O)O + C=CC(=O)N1CCN(c2nc(=O)n(-c3c(C)ccnc3C(C)C)c3nc(-c4c(O)cccc4F)c(F)cc23)C(C)C1 has an IC50 (second compound 0.1 µM) of under 31.6 nM, an IC50 (second compound 0.316 µM) of under 31.6 nM and an IC50 (second compound 1 µM) of under 31.6 nM. It also gave an IC50 (second compound 3.16 µM) of under 31.6 nM, an IC50 (second compound 10 µM) of under 31.6 nM and a viability, T/C [1] of 25.1%. The viability, T/C (second compound 0.1 µM, first compound 0.316 µM) was 22.8%, the viability, T/C (second compound 0.1 µM, first compound 1 µM) was 34% and the viability, T/C (second compound 0.1 µM, first compound 3.16 µM) was 50.2%. It also gave a viability, T/C (second compound 0.1 µM, first compound 10 µM) of 50.6%, a viability, T/C [2] of 28.5% and a viability, T/C (second compound 0.316 µM, first compound 0.1 µM) of 29.5%. The viability, T/C (second compound 0.316 µM, first compound 0.316 µM) was 32.6%, the viability, T/C (second compound 0.316 µM, first compound 1 µM) was 38.1% and the viability, T/C (second compound 0.316 µM, first compound 3.16 µM) was 46.8%. The viability, T/C (second compound 0.316 µM, first compound 10 µM) was 49.2%, the viability, T/C [3] was 23.2% and the viability, T/C (second compound 1 µM, first compound 0.1 µM) was 23.8%. For the same compound, the viability, T/C (second compound 1 µM, first compound 0.316 µM) was 32.7%, the viability, T/C (second compound 1 µM, first compound 1 µM) was 38.5% and the viability, T/C (second compound 1 µM, first compound 3.16 µM) was 50.1%. The viability, T/C (second compound 1 µM, first compound 10 µM) was 46.7%, the viability, T/C [4] was 29.2% and the viability, T/C (second compound 3.16 µM, first compound 0.1 µM) was 30.8%. It also gave a viability, T/C (second compound 3.16 µM, first compound 0.316 µM) of 32.8%, a viability, T/C (second compound 3.16 µM, first compound 1 µM) of 36.9% and a viability, T/C (second compound 3.16 µM, first compound 3.16 µM) of 43%. For the same compound, the viability, T/C (second compound 3.16 µM, first compound 10 µM) was 35.7%, the viability, T/C [5] was 20.7% and the viability, T/C (second compound 10 µM, first compound 0.1 µM) was 29.2%. For the same compound, the viability, T/C (second compound 10 µM, first compound 0.316 µM) was 21.1%, the viability, T/C (second compound 10 µM, first compound 1 µM) was 27.9% and the viability, T/C (second compound 10 µM, first compound 3.16 µM) was 27.7%. The viability, T/C (second compound 10 µM, first compound 10 µM) was 20.7%.

From PubChem BioAssay AID1963875 (Molecular Pharmacology Branch, DTP, NCI, 2024)
